{"source": "patent US12285407B2", "about": "“Bis-indolylmethane derivatives and uses thereof” (The University of The West Indies, priority 2018, dated 2025)", "key": {"[1]": {"test_system": "sarA, agrA, RNA III, mecA, blaZ and fnbA genes", "experiment": "Real time gene expression analysis in MRSA cells", "settings": "MRSA cells exposed to SP-BIM 13 only, or SP-BIM 13 in combination with ampicillin; 5 and 10 μg mL^−1"}, "[2]": {"test_system": "Enterococcus faecium ATCC 19434", "experiment": "Broth microdilution MIC of SP-BIMs", "type": "cell-based", "settings": "ATCC19434, SP-BIM alone, read-out: MIC Enterococcus faecium ATCC 19434"}, "[3]": {"test_system": "Salmonella typhimurium ATCC 14028", "experiment": "Broth microdilution MIC of SP-BIMs", "type": "cell-based", "settings": "Salmonella enterica, read-out: MIC Salmonella tvpkimurium ATCC 14028", "outline": "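S. typhimurium at ~10^6 CFU mL^−1 in cation-adjusted Mueller Hinton broth was exposed to twofold compound dilutions from 250 to 0.02 μg mL^−1 at 35° C. for 18 hours. Resazurin was then added, with 1 hour of shaking. MIC was the lowest concentration showing no blue-to-pink colour change.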"}, "[4]": {"test_system": "Klebsiella pneumoniae ATCC 49472", "experiment": "Broth microdilution MIC of SP-BIMs", "type": "cell-based", "settings": "ATCC49472, SP-BIM alone, read-out: MIC Klebisella pneumoniae ATCC 49472"}}}
{"smiles": "Oc1cc(C(c2c[nH]c3ccccc23)c2c[nH]c3ccccc23)cc(O)c1O", "note": "[SP-BIM 13, 5-(di(1H-indol-3-yl)methyl)benzene-1,2,3-triol]", "values": [{"measurement": "expression of both the downstream and regulator genes", "setting": "[1]", "result": "significantly reduced"}, {"measurement": "MIC", "setting": "[2]", "result": 125, "unit": "µg/mL"}, {"measurement": "MIC", "setting": "[3]", "result": 250, "unit": "µg/mL"}, {"measurement": "MIC", "setting": "[4]", "result": "> 250", "unit": "µg/mL"}]}
